US20120101032A1, “NOVEL MACROCYCLIC INHIBITORS OF HEPATITIS C VIRUS REPLICATION” (priority 2010, published 2012)
pEC50, pIC50: −log10 of the molar value. Where two headings read alike, the source gives them in different places.

Tests used:
[1] = target: NS3/NS4 complexes (Hepatitis C virus genotype 1a, UniProt P27958); assay: biochemical
Text: NS3-NS4 inhibition activity can be determined using known assay methods. For example, NS3/NS4 complexes may be formed and inhibitory concentrations of test compounds determined as described in U.S. Patent Application Publication Number 2007/0054842 paragraph numbers 1497-1509, which is incorporated herein by reference in its entirety. Similarly, hepatitis C replicon EC50 may be determined using known assay methods such as described in U.S. Patent Application Publication Number 2007/0054842 paragraph numbers 1510-1515, which is incorporated herein by reference in its entirety. Assays may be conducted at ambient temperature (23° C.) in assay buffer containing 50 mM Tris-HCl, pH 7.5, 15% glycerol, 0.6 mM Lauryldimethylamine Oxide (LDAO), 25 μM NS4A peptide, and 10 mM Dithiothreitol (DTT).

[2] = system: hepatitis C replicon; assay: hepatitis C replicon EC50 assay; assay type: cell-based; conditions: Hepatitis C virus
Text: NS3-NS4 inhibition activity can be determined using known assay methods.

[3] = NS3-NS4 activity, 23° C., pH 7.5, 25 μM NS4A peptide, read-out: IC50
[4] = hepatitis C replicon, read-out: EC50

Chain of NS3/NS4 complexes (P27958 1027-1657, one chain of several): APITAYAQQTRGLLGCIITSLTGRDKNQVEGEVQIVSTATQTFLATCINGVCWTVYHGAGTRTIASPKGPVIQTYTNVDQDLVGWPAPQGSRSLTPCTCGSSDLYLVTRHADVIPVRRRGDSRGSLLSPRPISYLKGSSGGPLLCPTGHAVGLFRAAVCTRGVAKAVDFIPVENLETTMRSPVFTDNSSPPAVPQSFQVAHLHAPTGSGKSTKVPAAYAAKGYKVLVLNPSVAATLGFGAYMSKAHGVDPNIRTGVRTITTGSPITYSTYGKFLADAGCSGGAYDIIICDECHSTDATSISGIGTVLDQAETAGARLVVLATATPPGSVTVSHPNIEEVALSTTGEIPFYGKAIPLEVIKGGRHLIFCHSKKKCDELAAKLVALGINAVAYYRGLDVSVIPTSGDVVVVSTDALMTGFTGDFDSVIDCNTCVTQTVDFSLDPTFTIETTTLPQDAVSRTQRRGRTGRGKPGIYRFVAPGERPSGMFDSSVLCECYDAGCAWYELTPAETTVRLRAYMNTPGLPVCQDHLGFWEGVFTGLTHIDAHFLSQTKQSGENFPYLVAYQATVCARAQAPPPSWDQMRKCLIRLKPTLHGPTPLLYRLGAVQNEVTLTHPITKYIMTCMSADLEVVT

Row | SMILES | pIC50 [1, 3] | pEC50 [2, 4] | pEC50 [2] | pIC50 [1]
1 | CC(C)n1c(O[C@@H]2C[C@H]3C(=O)N[C@]4(C(=O)NS(=O)(=O)N(C)C)C[C@H]4/C=C\CCCCC[C@H](N)C(=O)N3C2)nc2c(-c3csc(N4CCCCC4)n3)cccc21 [Compound 169] | > 8.00 | < 7.00 |  | 
2 | CC(C)n1c(O[C@@H]2C[C@H]3C(=O)N[C@]4(C(=O)NS(=O)(=O)C5(C)CC5)C[C@H]4/C=C\CCCCC[C@H](N)C(=O)N3C2)nc2c(-c3csc(N4CCCCC4)n3)cccc21 [Compound 170] | > 8.00 |  | 7.00 to 8.00 | 
3 | CC(C)n1c(O[C@@H]2C[C@H]3C(=O)N[C@]4(C(=O)NS(=O)(=O)C5CC5)C[C@H]4/C=C\CCCCC[C@H](NC(=O)OC(C)(C)C)C(=O)N3C2)nc2c(-c3nc(C4CCCCC4)cs3)cccc21 [Compound 172] | > 8.00 | > 8.00 |  | 
4 | CC(C)n1c(O[C@@H]2C[C@H]3C(=O)N[C@]4(C(=O)NS(=O)(=O)C5CC5)C[C@H]4/C=C\CCCCC[C@H](N)C(=O)N3C2)nc2c(-c3nc(C4CCCCC4)cs3)cccc21 [Compound 173] | > 8.00 | < 7.00 |  | 
5 | CC(C)n1c(O[C@@H]2C[C@H]3C(=O)N[C@]4(C(=O)NS(=O)(=O)C5(C)CC5)C[C@H]4/C=C\CCCCC[C@H](NC(=O)OC(C)(C)C)C(=O)N3C2)nc2c(-c3nc(C(F)(F)F)cs3)cccc21 [Compound 174] | > 8.00 | > 8.00 |  | 
6 | CC(C)n1c(O[C@@H]2C[C@H]3C(=O)N[C@]4(C(=O)NS(=O)(=O)C5(C)CC5)C[C@H]4/C=C\CCCCC[C@H](N)C(=O)N3C2)nc2c(-c3nc(C(F)(F)F)cs3)cccc21 [Compound 175] | > 8.00 | 7.00 to 8.00 |  | 
7 | CC(C)n1c(O[C@@H]2C[C@H]3C(=O)N[C@]4(C(=O)NS(=O)(=O)C5(C)CC5)C[C@H]4/C=C\CCCCC[C@H](NC(=O)OC(C)(C)C)C(=O)N3C2)nc2c(-c3csc(C(F)(F)F)n3)cccc21 [Compound 176] | > 8.00 | > 8.00 |  | 
8 | COc1ccccc1-c1csc(-c2cccc3c2nc(O[C@@H]2C[C@H]4C(=O)N[C@]5(C(=O)NS(=O)(=O)C6(C)CC6)C[C@H]5/C=C\CCCCC[C@H](N)C(=O)N4C2)n3C(C)C)n1 [Compound 177] | > 8.00 | < 7.00 |  | 
9 | CC(C)n1c(O[C@@H]2C[C@H]3C(=O)N[C@]4(C(=O)NS(=O)(=O)C5(C)CC5)C[C@H]4/C=C\CCCCC[C@H](N)C(=O)N3C2)nc2c(-c3nc(C4CCCCC4)cs3)cccc21 [Compound 178] | > 8.00 | < 7.00 |  | 
10 | CC(C)n1c(O[C@@H]2C[C@H]3C(=O)N[C@]4(C(=O)NS(=O)(=O)C5(C)CC5)C[C@H]4/C=C\CCCCC[C@H](NC(=O)OC(C)(C)C)C(=O)N3C2)nc2c(-c3nc(C4CCCCC4)cs3)cccc21 [Compound 179] | > 8.00 |  | > 8.00 | 
11 | CC(C)n1c(O[C@@H]2C[C@H]3C(=O)N[C@]4(C(=O)NS(=O)(=O)C5(C)CC5)C[C@H]4/C=C\CCCCC[C@H](NC(=O)OC(C)(C)C)C(=O)N3C2)nc2c(-c3nc(C4CCOCC4)cs3)cccc21 [Compound 181] | > 8.00 | > 8.00 |  | 
12 | CC(C)n1c(O[C@@H]2C[C@H]3C(=O)N[C@]4(C(=O)NS(=O)(=O)C5(C)CC5)C[C@H]4/C=C\CCCCC[C@H](NC(=O)OC(C)(C)C)C(=O)N3C2)nc2c(-c3nc(C4CCNCC4)cs3)cccc21 [Compound 182] |  |  | 7.00 to 8.00 | > 8.00
13 | CC(C)n1c(O[C@@H]2C[C@H]3C(=O)N[C@]4(C(=O)NS(=O)(=O)C5(C)CC5)C[C@H]4/C=C\CCCCC[C@H](NC(=O)OC(C)(C)C)C(=O)N3C2)nc2c(-c3nc(C4CCN(C)CC4)cs3)cccc21 [Compound 183] | > 8.00 | > 8.00 |  | 
14 | CC(C)n1c(O[C@@H]2C[C@H]3C(=O)N[C@]4(C(=O)NS(=O)(=O)C5CC5)C[C@H]4/C=C\CCCCC[C@H](NC(=O)OC(C)(C)C)C(=O)N3C2)nc2c(-c3nc(C4CCN(C)CC4)cs3)cccc21 [Compound 184] | > 8.00 | > 8.00 |  | 
15 | C#CC1(S(=O)(=O)NC(=O)[C@@]23C[C@H]2/C=C\CCCCC[C@H](NC(=O)OC(C)(C)C)C(=O)N2C[C@H](Oc4nc5c(-c6nc(C7CCCCC7)cs6)cccc5n4C(C)C)C[C@H]2C(=O)N3)CC1 [Compound 188] |  |  | > 8.00 | > 8.00
16 | CC#CC1(S(=O)(=O)NC(=O)[C@@]23C[C@H]2/C=C\CCCCC[C@H](NC(=O)OC(C)(C)C)C(=O)N2C[C@H](Oc4nc5c(-c6nc(C7CCCCC7)cs6)cccc5n4C(C)C)C[C@H]2C(=O)N3)CC1 [Compound 189] | > 8.00 | > 8.00 |  | 
17 | CC(C)n1c(O[C@@H]2C[C@H]3C(=O)N[C@]4(C(=O)NS(=O)(=O)C5CC5)C[C@H]4/C=C\CCCCC[C@H](NC(=O)OC(C)(C)C)C(=O)N3C2)nc2c(-c3nc(C4CCNCC4)cs3)cccc21 [Compound 190] | > 8.00 | > 8.00 |  | 

Row | SMILES | pIC50 [1, 3] | pEC50 [2, 4] | pEC50 [2] | pIC50 [1]
18 | CC(C)(C)OC(=O)N[C@H]1CCCCC/C=C\[C@@H]2C[C@@]2(C(=O)NS(=O)(=O)C2(C)CC2)NC(=O)[C@@H]2C[C@@H](Oc3nc4cccc(-c5nc(-c6ccccc6)cs5)c4s3)CN2C1=O [Compound 201] | > 8.00 | > 8.00 |  | 
19 | CC(C)(C)OC(=O)N[C@H]1CCCCC/C=C\[C@@H]2C[C@@]2(C(=O)NS(=O)(=O)C2(C)CC2)NC(=O)[C@@H]2C[C@@H](Oc3ncnc4c3CCCC4)CN2C1=O [Compound 301] | > 8.00 | 7.00 to 8.00 |  | 
20 | CC(C)(C)OC(=O)N[C@H]1CCCCC/C=C\[C@@H]2C[C@@]2(C(=O)NS(=O)(=O)C2(C)CC2)NC(=O)[C@@H]2C[C@@H](Oc3nc(-c4ccccc4)nc4c3CCCC4)CN2C1=O [Compound 302] | > 8.00 | > 8.00 |  | 
21 | CC(C)c1csc(-c2nc3c(c(O[C@@H]4C[C@H]5C(=O)N[C@]6(C(=O)NS(=O)(=O)C7(C)CC7)C[C@H]6/C=C\CCCCC[C@H](NC(=O)OC(C)(C)C)C(=O)N5C4)n2)CCCC3)n1 [Compound 303] | 7.00 to 8.00 |  | 7.00 to 8.00 | 
22 | CC(C)c1csc(-c2nc3c(c(O[C@@H]4C[C@H]5C(=O)N[C@]6(C(=O)NS(=O)(=O)C7(C)CC7)C[C@H]6/C=C\CCCCC[C@H](N)C(=O)N5C4)n2)CCCC3)n1 [Compound 304] | 7.00 to 8.00 |  | < 7.00 | 
23 | CC(C)(C)OC(=O)N[C@H]1CCCCC/C=C\[C@@H]2C[C@@]2(C(=O)NS(=O)(=O)C2(C)CC2)NC(=O)[C@@H]2C[C@@H](Oc3cc(-c4ccccc4)nc4c3CCCC4)CN2C1=O [Compound 402] | > 8.00 |  | > 8.00 | 
24 | CC(C)(C)OC(=O)N[C@H]1CCCCC/C=C\[C@@H]2C[C@@]2(C(=O)NS(=O)(=O)C2(C)CC2)NC(=O)[C@@H]2C[C@@H](Oc3ccnc4c3CCCC4)CN2C1=O [Compound 403] | > 8.00 |  | 7.00 to 8.00 | 
25 | CC(C)(C)OC(=O)N[C@H]1CCCCC/C=C\[C@@H]2C[C@@]2(C(=O)NS(=O)(=O)C2(C)CC2)NC(=O)[C@@H]2C[C@@H](Oc3nc(-c4ccccc4)cc4c3CCCC4)CN2C1=O [Compound 404] | > 8.00 | < 7.00 |  | 
26 | CC(C)c1csc(-c2cc3c(c(O[C@@H]4C[C@H]5C(=O)N[C@]6(C(=O)NS(=O)(=O)C7(C)CC7)C[C@H]6/C=C\CCCCC[C@H](NC(=O)OC(C)(C)C)C(=O)N5C4)n2)CCCC3)n1 [Compound 405] | > 8.00 | < 7.00 |  | 
27 | CC(C)c1csc(-c2cc(O[C@@H]3C[C@H]4C(=O)N[C@]5(C(=O)NS(=O)(=O)C6(C)CC6)C[C@H]5/C=C\CCCCC[C@H](NC(=O)OC(C)(C)C)C(=O)N4C3)c3c(n2)CCCC3)n1 [Compound 406] | > 8.00 | > 8.00 |  | 
28 | COc1ccc2c(O[C@@H]3C[C@H]4C(=O)N[C@]5(C(=O)NS(=O)(=O)C6(C)CC6)C[C@H]5/C=C\CCCCC[C@H](NC(=O)OC(C)(C)C)C(=O)N4C3)cc(C(C)C)nc2c1C [Compound 501] | > 8.00 | > 8.00 |  | 
29 | COc1ccc2c(O[C@@H]3C[C@H]4C(=O)N[C@]5(C(=O)NS(=O)(=O)C6(C)CC6)C[C@H]5/C=C\CCCCC[C@H](N)C(=O)N4C3)cc(C(C)C)nc2c1C [Compound 502] | > 8.00 | < 7.00 |  | 
30 | CC(C)c1csc(-c2cc(O[C@@H]3C[C@H]4C(=O)N[C@]5(C(=O)NS(=O)(=O)C6(C)CC6)C[C@H]5/C=C\CCCCC[C@H](NC(=O)OC(C)(C)C)C(=O)N4C3)ccn2)n1 [Compound 601] | > 8.00 | > 8.00 |  | 
31 | CC(C)c1csc(-c2cc(O[C@@H]3C[C@H]4C(=O)N[C@]5(C(=O)NS(=O)(=O)C6(C)CC6)C[C@H]5/C=C\CCCCC[C@H](N)C(=O)N4C3)ccn2)n1 [Compound 602] | > 8.00 | < 7.00 |  | 
32 | CC(C)(C)OC(=O)N[C@H]1CCCCC/C=C\[C@@H]2C[C@@]2(C(=O)NS(=O)(=O)C2(C)CC2)NC(=O)[C@@H]2C[C@@H](Oc3nc4cccc(-c5nc(C6CCCCC6)cs5)c4nc3C(F)(F)F)CN2C1=O [Compound 701] | > 8.00 | < 7.00 |  | 
33 | CC(C)(C)OC(=O)N[C@H]1CCCCC/C=C\[C@@H]2C[C@@]2(C(=O)NS(=O)(=O)C2(C)CC2)NC(=O)[C@@H]2C[C@@H](Oc3nc4c(-c5nc(C6CCCCC6)cs5)cccc4nc3C(F)(F)F)CN2C1=O [Compound 702] | > 8.00 | > 8.00 |  | 
34 | Cc1nc2cccc(-c3nc(C4CCCCC4)cs3)c2nc1O[C@@H]1C[C@H]2C(=O)N[C@]3(C(=O)NS(=O)(=O)C4(C)CC4)C[C@H]3/C=C\CCCCC[C@H](NC(=O)OC(C)(C)C)C(=O)N2C1 [Compound 703] | > 8.00 | > 8.00 |  | 
